According to patent US11344634B2, “Activity based probe and uses thereof for imaging” (Yissum Research Development Company of the Hebrew …, priority 2016, dated 2022):

Tests used:
[1] = target: T1, Recombinant human Cathepsin B (Homo sapiens, UniProt P07858); assay: Recombinant cathepsin labeling, competition assay, iodinated probes; format: biochemical; conditions: probe 2 hour, then GB123 30 minutes
T1 construct: made in house
Procedure: (§1) Recombinant cathepsin labeling, competition assay: Recombinant human Cathepsin L (0.5 μg), Cathepsin B (0.5 μg) were incubated the indicated concentrations of targeted or control iodinated activity based probes (CT-ABP) in reaction buffer (50 mM acetate, 2 mM DTT and 5 mM MgCl2, pH 5.5) for 120 minutes at 37° C. After probe incubation, residual cathepsin activity was labeled with GB123 for 30 minutes. The reaction was stopped by addition of sample buffer ×4 (40% glycerol, 0.2 M Tris/HCl, pH 6.8, 20% beta-mercaptoethanol, 12% SDS and 0.4 mg/ml bromophenol blue). Samples were then boiled, separated on a 12.5% SDS gel and scanned for fluorescence by a Typhoon scanner FLA 9500 at excitation/emission wavelengths of 645/670 nm.
(§2) The biochemical evaluation of the new probes started with evaluation for their ability to bind recombinant human cathepsins B or Cathepsin L. Recombinant human cathepsins B was incubated with increasing concentrations of the probes for 2 hour. Residual activity was detected by a fluorescently labeled cathepsin ABP GB 123 that was added to samples for 30 minutes at r.t. […] Next, residual cathepsins activity was labeled by GB123 1 μM during 2 hours. Cell lysates were separated on SDS-PAGE followed by scanning the gel for fluorescence to visualize labeling of residual cathepsins activity by GB123 (FIGS. 11C and 11F).
(§3) Recombinant human cathepsins B was incubated with increasing concentrations of the probes for 2 hour. Residual activity was detected by a fluorescently labeled cathepsin ABP that was added to samples for 30 minutes at r.t. The free probe was separated from the enzyme-probe complex by SDS PAGE, the detection of the probe-enzyme complex was done by a fluorescent scanning of the gel at Cy5 fluorescence, FIG. 12. […] To assure that the binding is dependent on protease activity, a control were performed HG87, HG94 and HG97 lacking the reactive moiety. […] Evaluation of I-CT-ABPs in intact cells. […] Next, residual cathepsins activity was labeled by GB123 1 μM during 2 hours. Cell lysates were separated on SDS-PAGE followed by scanning the gel for fluorescence at: 645/670 nm to visualize labeling of residual cathepsins activity by GB123 (FIG. 12E). […] Recombinant human cathepsins B was incubated with increasing concentrations of the Cy5 labelled probes for 2 hour. The free probe was separated from the enzyme-probe complex by SDS PAGE, the detection of the probe-enzyme complex was done by a fluorescent scanning of the gel at Cy5 fluorescence. […] The binding of the all the Cy5 labelled probes occur in an activity-dependent manner. Direct labeling in intact cells. The assay was carried out by incubation of NIH-3T3 cells with Cy5 labelled iodine tagged probes for 24 hours. Cell lysates were separated on SDS-PAGE followed by scanning the gel for fluorescence at: 645/670 nm to visualize labeling of residual cathepsins activity by GB123. […] For the PEGylated I-CT-ABP HG93 and HG32 also observed that recombinant cathepsin activity and cell permeability, it's difficult to quantify the selective inhibition due to enhanced permeation and retention (EPR) effect.

[2] = target: T2, Recombinant human Cathepsin L (Homo sapiens, UniProt P07711); assay: as above; format: biochemical; conditions: probe 2 hour, then GB123 30 minutes
T2 construct: made in house
T2 sequence (P07711 114-333): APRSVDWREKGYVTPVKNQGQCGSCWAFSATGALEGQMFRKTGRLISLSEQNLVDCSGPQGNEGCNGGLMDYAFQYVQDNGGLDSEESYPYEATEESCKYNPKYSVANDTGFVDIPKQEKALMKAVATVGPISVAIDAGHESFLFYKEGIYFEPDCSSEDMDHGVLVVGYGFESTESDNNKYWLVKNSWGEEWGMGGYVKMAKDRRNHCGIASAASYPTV
Procedure: as §1, §2, §3

NIH-3T3 cells = assay: In vitro cytotoxicity, methylene blue assay, I-CT-ABPs; format: cell-based, mouse; conditions: NIH-3T3, 10 μM, 48 hours
Procedure: In vitro Cytotoxicity Assays. Methylene Blue assays were performed in 96-well plates; NIH-3T3 cells (5×10^3 cells/well) were seeded in a 96-well plate one day before treatment. Cells were treated with indicated concentrations of targeted IABNs and non-targeted nanomaterials that were pre-dissolved in 0.1% DMSO in the culture medium. Cells were incubated for 24 h and 48 h and cells were fixed with 2.5% glutaraldehyde incubation for 10 min. Cells were washed with water and borate buffer (0.1M, pH=8.5), Cell number was determined by staining cells with the addition of 100 μl per well of 1% Methylene Blue in borate buffer, followed by incubation at room temperature for at least 1 hour. The stain was aspirated and the plates rinsed by immersion in water, followed by immersion in deionized water. The plates were air-dried and then the stain was released from cells by the addition of 200 μl/well 0.1 N HCl solutions. After 1 hour incubation at 37° C., the absorbance of each […] at 620 nm was determined on a Cytation 3 microplate reader.
Cytotoxicity study of the I-CT-ABPs, the toxic response to the systematically varied physico-chemical properties of successive PAMAM dendrimers. In vitro cytotoxicity of I-CT-ABPs to NIH-3T3 cell lines was investigated. Viability assay was performed for assessment of the cytotoxicity of each I-CT-ABP to the NIH-3T3 cell lines using the methylene blue method.

Row | Substance | binding to recombinant cathepsin B, competitive assay [1] | binding to recombinant cathepsin L, competitive assay [2] | toxicity (viability assay) (NIH-3T3 cells)
1 | (IPA)16(NH2)16-G3 [HG87] | no inhibition was detected | no inhibition was detected | slight toxicity
2 | (IPA)16(PEG-4)16-G3 [HG94] | no inhibition was detected | no inhibition was detected | –
3 | (IPA)16(PEG-750)16-G3 [HG97] | no inhibition was detected | no inhibition was detected | –
